Source: patent publication US20250386822A1, “Microcapsules controlling the diffusion of an active organic compound” (KAPSERA, priority 2022, published 2025)

How the values were obtained:
[1] = Pheromone diffusion duration by SPME pre-concentration and GCMS, closed temperature-controlled chamber (Example 1); type: physicochemical; conditions: pine processionary pheromone; paraffin oil core, 1% pheromone by weight
Source text: FIG. 1: This graph represents the abundance of the main compound of the non-encapsulated pheromone after preconcentration using the Solid Phase Micro-Extraction (SPME) technique, separation of the pheromone compounds by gas chromatography and detection by mass spectrometry (GCMS) in a closed temperature-controlled chamber. FIG. 2: This graph represents the abundance of the main compound of the encapsulated pheromone after preconcentration using the Solid Phase Micro-Extraction (SPME) technique, separation of the pheromone compounds by gas chromatography and detection by mass spectrometry (GCMS) in a closed temperature-controlled chamber. An analytical method was developed to detect the pheromone's main compound. The low quantities of analytes led to the choice of a pre-concentration method known as Solid Phase Micro-Extraction (SPME) and Gas Chromatography-Mass Spectrometry (GCMS).

[2] = Closed system: study of thermodynamic equilibrium, SPME-GC/MS in sealed 20 mL flasks (Example 2); type: physicochemical; conditions: closed 20 mL flask; European grapevine moth pheromone
Procedure: In order to establish the diffusion profiles of the samples at short times and to obtain initial information on any differences between the capsules, a study was carried out in a closed system. The experiment consists of introducing the samples into 20 mL hermetically sealed flasks and following the evolution of the quantity extracted by the SPME fibre over time, until equilibrium is reached. Measurements were initially taken over short periods (one measurement every 45 minutes, corresponding to the analysis time) and then, once the maximum concentration had been reached, measurements were taken at longer intervals to ensure that equilibrium had been reached (one measurement every 2.5 hours). These tests were carried out using the European grapevine moth pheromone, (E)-7-(Z)-9-dodecadienyl acetate (C14H24O2).

duration of the pheromone's diffusion [1]	time until equilibrium is reached [2] [h]	Compound
less than 10 days	–	CC/C=C\C#CCCCCCCCCCCOC(C)=O [Example 1 non-encapsulated pheromone, Z-13-hexadecen-11-yn-1-yl acetate]
–	> 50	CC/C=C\C=C\CCCCCCOC(C)=O [Example 2 non-encapsulated pheromone, (E)-7-(Z)-9-dodecadienyl acetate]
